In US20030162777A1, “Novel N-acylated heterocycles” (Recordati S.A., priority 2001, published 2003):

What follows are compounds tested against T1, human 5HT1A-serotonergic receptor (Homo sapiens, UniProt P08908) (assay: Radioligand binding to recombinant 5-HT1A receptors). Conditions: [3H]8-OH-DPAT 1 nM, membranes of HeLa cells with human 5-HT1A receptor; Ki from IC50 by Cheng & Prusoff; read-out: Binding affinity for 5HT1A receptors, Ki.
T1 construct: expressed in transfected cells; host or cells: HeLa (human cell line), stably transfected; cell membranes used
T1 sequence (P08908 1-422): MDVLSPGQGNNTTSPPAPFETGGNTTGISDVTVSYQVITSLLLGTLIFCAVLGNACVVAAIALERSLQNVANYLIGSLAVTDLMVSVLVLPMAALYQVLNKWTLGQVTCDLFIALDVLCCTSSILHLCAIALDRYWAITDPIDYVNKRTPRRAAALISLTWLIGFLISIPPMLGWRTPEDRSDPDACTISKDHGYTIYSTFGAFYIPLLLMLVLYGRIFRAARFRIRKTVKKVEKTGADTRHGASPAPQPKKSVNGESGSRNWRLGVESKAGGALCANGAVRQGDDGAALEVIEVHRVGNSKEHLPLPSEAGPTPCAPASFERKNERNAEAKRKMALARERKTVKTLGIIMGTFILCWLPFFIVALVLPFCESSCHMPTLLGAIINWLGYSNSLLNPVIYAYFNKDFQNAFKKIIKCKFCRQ
Summary of the method: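 Displacement of 1 nM [3H]8-OH-DPAT (30 min, 30 °C, Tris-HCl pH 7.4 with MgCl2 and pargyline) from recombinant human 5-HT1A in transfected HeLa membranes, stopped by filtration. Specific binding defined against 10 μM 5-HT; IC50 by nonlinear fitting, then Ki by Cheng–Prusoff.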

| Structure (SMILES) | Ki [nM] |
| --- | --- |
| COc1ccc(CC(=O)N2c3ccccc3CCC2CN2CCN(c3cccc4[nH]ccc34)CC2)cc1 (stereo not shown) [Example 68A43, 1-(4-Indolyl)-4-[1-[2-(4-methoxyphenylacetyl)]-1,2,3,4-tetrahydroquinoline-2-ylmethyl]piperazine] | 42.7 |
| O=C(Cc1cccs1)N1c2ccccc2CCC1CN1CCN(c2nccc3ccccc23)CC1 (stereo not shown) [Example 75A8, 1-(1-Isoquinolinyl)-4-[1-(2-thienyacetyl)-1,2,3,4-tetrahydroquinolin-2-ylmethyl]piperazine] | 17 |
| O=C(C1CCCCC1)N1c2ccccc2CCC1CN1CCN(Cc2cc(Cl)ccc2Cl)CC1 (stereo not shown) [Example 35A36, 1-(1-Cyclohexanecarbonyl-1,2,3,4-tetrahydroquinoline-2-ylmethyl)-4-(2,5-dichlorobenzyl)piperazine] | 2.4 |
| CC(C)(C)OC(=O)N1CCC[C@@H]1C(=O)N1c2ccccc2CCC1CN1CCN(c2cccc3[nH]ccc23)CC1 (stereo partly drawn) [Example 71A4, 1-[1-(1-tert-Butoxycarbonyl-(2R)-pyrrolidin-2yl)carbonyl-1,2,3,4-tetrahydroquinoline-2-ylmethyl]-4-(4-indolyl)piperazine] | 45.9 |
| O=C(Cc1ccsc1)N1c2ccccc2CCC1CN1CCN(c2cccc3[nH]ccc23)CC1 (stereo not shown) [Example 68A40, 1-(4-Indolyl)-4-[1-[2-(3-thienylacetyl)]-1,2,3,4-tetrahydroquinoline-2-ylmethyl]piperazine] | 7.5 |
| CC(C)(C)OC(=O)NCCC(=O)N1c2ccccc2CCC1CN1CCN(c2cccc3[nH]ccc23)CC1 (stereo not shown) [Example 71A1, 1-[1-(3-tert-Butoxycarbonylamino)propionyl-1,2,3,4-tetrahydroquinoline-2-ylmethyl]-4-(4-indolyl)piperazine] | 15.2 |
| CC(C)(C)OC(=O)NCC(=O)N1c2ccccc2CCC1CN1CCN(c2cccc3[nH]ccc23)CC1 (stereo not shown) [Example 71A, 1-[1-(2-tert-Butoxycarbonylamino)acetyl-1,2,3,4-tetrahydroquinoline-2-ylmethyl]-4-(4-indolyl)piperazine] | 35.7 |
| O=C(C1CCCCC1)N1c2ccccc2CCC1CN1CCC(c2cccc(F)c2)CC1 (stereo not shown) [Example 72A39, 1-(1-Cyclohexanecarbonyl-1,2,3,4-tetrahydroquinolin-2-ylmethyl)-4-(3-fluorophenyl)piperidine] | 39.1 |
| O=C(Cc1cccs1)N1c2ccccc2CCC1CN1CCN(c2cccc3[nH]ccc23)CC1 (stereo not shown) [Example 68A39, 1-(4-Indolyl)-4-[1-[2-(2-thienylacetyl)]-1,2,3,4-tetrahydroquinoline-2-ylmethyl]piperazine] | 6.8 |
| Cc1cccc(N2CCN(CC3CCc4ccccc4N3C(=O)C3CCCCC3)CC2)n1 (stereo not shown) [Example 72A20, 1-(1-Cyclohexanecarbonyl-1,2,3,4-tetrahydroquinolin-2-ylmethyl)-4-(6-methylpyridin-2-yl)piperazine] | 5.4 |
| O=C(C1CCCCC1)N1c2ccccc2CCC1CN1CCN(c2c(Cl)cncc2Cl)CC1 (stereo not shown) [Example 72A66, 1-(1-Cyclohexanecarbonyl-1,2,3,4-tetrahydroquinolin-2-ylmethyl)-4-(3,5-dichloropyridin-4-yl)piperazine] | 10.2 |
| O=C(C1CCCCC1)N1c2ccccc2CCC1CN1CCC(c2ccccc2C(F)(F)F)CC1 (stereo not shown) [Example 72A81, 1-(1-Cyclohexanecarbonyl-1,2,3,4-tetrahydroquinolin-2-ylmethyl)-4-(2-trifluoromethylphenyl)piperidine] | 25.5 |
| O=C(C1CCCCC1)N1c2ccccc2CCC1CN1CCN(c2ccc(Cl)cc2Cl)CC1 (stereo not shown) [Example 35A9, 1-(1-Cyclohexanecarbonyl-1,2,3,4-tetrahydroquinoline-2-ylmethyl)-4-(2,4-dichlorophenyl)piperazine] | 39.6 |
| Cc1c(F)cccc1C1CCN(CC2CCc3ccccc3N2C(=O)C2CCCCC2)CC1 (stereo not shown) [Example 72A57, 1-(1-Cyclohexanecarbonyl-1,2,3,4-tetrahydroquinolin-2-ylmethyl)-4-(3-fluoro-2-methylphenyl)piperidine] | 6.4 |

Now from value to compound:

| Ki [nM] | Structure (SMILES) |
| --- | --- |
| 23.5 | CS(=O)(=O)N(CC(=O)N1c2ccccc2CCC1CN1CCN(c2cccc3[nH]ccc23)CC1)Cc1ccccc1 (stereo not shown) [Example 68A71, 1-[1-[2-(N-Benzyl-N-methanesulphonylamino)acetyl]-1,2,3,4-tetrahydroquinoline-2-ylmethyl]-4-(4-indolyl)piperazine] |
| 3.9 | COc1ccc(C(=O)N2c3ccccc3CCC2CN2CCN(c3cccc4c3OCCO4)CC2)cc1 (stereo not shown) [Example 76A4, 1-(2,3-Dihydrobenzo[1,4]dioxin-5-yl)-4-[1-(4-methoxybenzoyl)-1,2,3,4-tetrahydroquinolin-2-ylmethyl]piperazine] |
| 13.3 | O=C(c1cccnc1)N1c2ccccc2CCC1CN1CCN(c2cccc3[nH]ccc23)CC1 (stereo not shown) [Example 68A33, 1-(4-Indolyl)-4-[1-(3-pyridylcarbonyl)-1,2,3,4-tetrahydroquinoline-2-ylmethyl]piperazine] |
| 32.9 | O=C(CCc1ccccc1)N1c2ccccc2CCC1CN1CCN(c2cccc3[nH]ccc23)CC1 (stereo not shown) [Example 68A24, 1-(4-Indolyl)-4-[1-(3-phenylpropionyl)-1,2,3,4-tetrahydroquinoline-2-ylmethyl]piperazine] |
| 12.2 | O=C(C1CCCCC1)N1c2ccccc2CCC1CN1CCN(c2cccc3nonc23)CC1 (stereo not shown) [Example 60A8, 1-[4-(2,1,3-Benzoxadiazolyl)]-4-(1-cyclohexanecarbonyl-1,2,3,4-tetrahydroquinoline-2-ylmethyl)piperazine] |
| 10 | O=C(C1CCCCC1)N1c2ccccc2CCC1CN1CCN(c2ccnc3ccccc23)CC1 (stereo not shown) [Example 72A94, 1-(1-Cyclohexanecarbonyl-1,2,3,4-tetrahydroquinolin-2-ylmethyl)-4-(4-quinolyl)piperazine] |
| 15.7 | C[C@@H](NC(=O)N1c2ccccc2CCC1CN1CCN(c2cccc3[nH]ccc23)CC1)c1ccccc1 (single isomer, unassigned) [Example 69A5] |
| 24.9 | O=C(c1ccncc1)N1c2ccccc2CCC1CN1CCN(c2cccc3[nH]ccc23)CC1 (stereo not shown) [Example 68A34, 1-(4-Indolyl)-4-[1-(4-pyridylcarbonyl)-1,2,3,4-tetrahydroquinoline-2-ylmethyl]piperazine] |
| 5 | O=C(c1ccco1)N1c2ccccc2CCC1CN1CCN(c2cccc3c2OCCO3)CC1 (stereo not shown) [Example 76A3, 1-(2,3-Dihydrobenzo[1,4]dioxin-5-yl)-4-[1-(2-furanecarbonyl)-1,2,3,4-tetrahydroquinolin-2-ylmethyl]piperazine] |
| 9.1 | COc1cccc(C(=O)N2c3ccccc3CCC2CN2CCN(c3cccc4[nH]ccc34)CC2)c1 (stereo not shown) [Example 68A67, 1-(4-Indolyl)-4-[1-(3-methoxybenzoyl)-1,2,3,4-tetrahydroquinoline-2-ylmethyl]piperazine] |
| 5 | Cn1ccc2c(N3CCN(C[C@H]4CCc5ccccc5N4C(=O)C4CCCCC4)CC3)cccc21 [Example 43, (R)-1-(1-Cyclohexanecarbonyl-1,2,3,4-tetrahydroquinoline-2-ylmethyl)-4-(1-methyl-4-indolyl)piperazine] |
